For one compound, Kd results are on record in BindingDB's records for patent US20250325529 (Celloram, 2025).

A word on the Kd: it is the concentration at which binding is half-saturated. A low value points to tighter binding.

Common to all, as to experiment: Binding assays for FABP3, FABP4, FABP5 and FABP7
Test [1] concerns the target Fatty acid-binding protein, adipocyte (Homo sapiens, UniProt P15090). As for the experimental part:
(§1) Binding assays for FABP3, FABP4, FABP5 and FABP7 were carried out by fluorescence titrations. His-tagged FABPs were bacterially expressed in E. coli, purified using Ni Sepharose beads, and the equilibrium dissociation constants (Kd) that characterize their interactions with different inhibitor compounds were measured by fluorescence competition assays. The method entails two steps as described in e.g., Lin, Q. et al., “Ligand selectivity of the peroxisome proliferator-activated receptor alpha,” Biochemistry 38, 185-190, doi:10.1021/bi9816094 [pii](1999). In the first step, Kd for the association of the protein with the fluorescent fatty acid probe ANS was measured. Protein (2 μM) was titrated with ANS from a concentrated solution in DMSO. Ligand binding was monitored by following the increase in the fluorescence of the ligand upon binding to the protein, and Kd for the association of ANS with the each FABP was computed from titration curves as described in e.g., Norris, A. W. & Li, E., “Fluorometric titration of the CRABPs,” Methods Mol Biol 89, 123-139 (1998)). In the second step, Kds for binding of non-fluorescent ligands were measured by monitoring their ability to displace ANS in the binding pocket of the protein.

The target in test [2] is Fatty acid-binding protein, heart (Homo sapiens, UniProt P05413). The protocol:
as §1

The target of test [3] is Fatty acid-binding protein, brain (FABP7) (Homo sapiens, UniProt O15540). The protocol:
as §1

The target of test [4] is Fatty acid-binding protein 5 (Homo sapiens, UniProt Q01469). The protocol: as §1
Sequence of Fatty acid-binding protein 5 (Q01469 whole entry): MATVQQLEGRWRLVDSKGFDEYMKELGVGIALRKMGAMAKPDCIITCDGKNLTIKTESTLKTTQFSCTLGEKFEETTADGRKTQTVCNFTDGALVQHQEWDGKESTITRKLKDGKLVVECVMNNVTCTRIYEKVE

Sequence of Fatty acid-binding protein, brain (FABP7) (O15540 whole entry): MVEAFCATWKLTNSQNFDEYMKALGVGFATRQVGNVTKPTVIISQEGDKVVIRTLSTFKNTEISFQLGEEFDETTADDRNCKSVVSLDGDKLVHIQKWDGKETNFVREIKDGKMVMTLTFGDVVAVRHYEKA
Sequence of Fatty acid-binding protein, adipocyte (P15090 whole entry): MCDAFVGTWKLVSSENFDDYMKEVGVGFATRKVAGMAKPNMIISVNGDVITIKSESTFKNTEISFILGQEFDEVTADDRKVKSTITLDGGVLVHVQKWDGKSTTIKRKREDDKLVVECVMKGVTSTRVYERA
Sequence of Fatty acid-binding protein, heart (P05413 whole entry): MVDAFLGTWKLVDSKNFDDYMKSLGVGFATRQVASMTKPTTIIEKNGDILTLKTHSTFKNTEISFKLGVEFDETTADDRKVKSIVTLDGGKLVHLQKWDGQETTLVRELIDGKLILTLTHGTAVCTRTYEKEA

On to `CC(C)Oc1nc(NC(=O)CC(C)(C)CC(=O)O)c(Cl)cc1Cl` [US20250325529, ID PD154], for which the Kd was found to be 14 nM in test [1], 60.8 nM in test [2], 43 nM in test [3] and 11 nM in test [4].
